Measurements taken from paper PMC5418314, “First-in-human phase I study of SOR-C13, a TRPV6 calcium channel inhibitor, in patients with advanced solid tumors” (Investigational New Drugs, 2017).
Like-named read-outs stand apart in the source and are kept apart here. Ends that are not written are not given here.

Legend:
[1] = Phase I plasma pharmacokinetics; format: in vivo, human; details: human, plasma, iv, 90-min IV infusion, plasma LC-MS
Method: Blood samples were taken on Days 1, 3, 8 and 10 of Cycle 1 to assess the pharmacokinetic (PK) profile of SOR-C13 at the various doses used. Plasma samples for the IV 20 min infusion were taken at pre-infusion, 5, 15 min after the start of infusion and post-infusion at 2, 5, 10 and 30 min and 1, 4 h. Plasma samples for SOR-C13 analysis for the 90 min infusion were taken pre-infusion, at 5, 15 and 45 min after the start of infusion, and at 2, 5, 10 and 30 min post-infusion. Since the infusion for the majority of patients, and further studies will be IV 90 min only PK data for this infusion time are presented. Validated liquid chromatography-mass spectrometry analysis provided the plasma concentration/time data.

hERG = hERG (Homo sapiens, UniProt Q12809); assay: hERG channel activity; format: biochemical
[2] = peptide degradation in human plasma; format: in vitro ADME
[3] = tested on: voltage-gated potassium channels; assay: voltage-gated potassium channel activity; format: biochemical

Chain of hERG (Q12809 whole entry): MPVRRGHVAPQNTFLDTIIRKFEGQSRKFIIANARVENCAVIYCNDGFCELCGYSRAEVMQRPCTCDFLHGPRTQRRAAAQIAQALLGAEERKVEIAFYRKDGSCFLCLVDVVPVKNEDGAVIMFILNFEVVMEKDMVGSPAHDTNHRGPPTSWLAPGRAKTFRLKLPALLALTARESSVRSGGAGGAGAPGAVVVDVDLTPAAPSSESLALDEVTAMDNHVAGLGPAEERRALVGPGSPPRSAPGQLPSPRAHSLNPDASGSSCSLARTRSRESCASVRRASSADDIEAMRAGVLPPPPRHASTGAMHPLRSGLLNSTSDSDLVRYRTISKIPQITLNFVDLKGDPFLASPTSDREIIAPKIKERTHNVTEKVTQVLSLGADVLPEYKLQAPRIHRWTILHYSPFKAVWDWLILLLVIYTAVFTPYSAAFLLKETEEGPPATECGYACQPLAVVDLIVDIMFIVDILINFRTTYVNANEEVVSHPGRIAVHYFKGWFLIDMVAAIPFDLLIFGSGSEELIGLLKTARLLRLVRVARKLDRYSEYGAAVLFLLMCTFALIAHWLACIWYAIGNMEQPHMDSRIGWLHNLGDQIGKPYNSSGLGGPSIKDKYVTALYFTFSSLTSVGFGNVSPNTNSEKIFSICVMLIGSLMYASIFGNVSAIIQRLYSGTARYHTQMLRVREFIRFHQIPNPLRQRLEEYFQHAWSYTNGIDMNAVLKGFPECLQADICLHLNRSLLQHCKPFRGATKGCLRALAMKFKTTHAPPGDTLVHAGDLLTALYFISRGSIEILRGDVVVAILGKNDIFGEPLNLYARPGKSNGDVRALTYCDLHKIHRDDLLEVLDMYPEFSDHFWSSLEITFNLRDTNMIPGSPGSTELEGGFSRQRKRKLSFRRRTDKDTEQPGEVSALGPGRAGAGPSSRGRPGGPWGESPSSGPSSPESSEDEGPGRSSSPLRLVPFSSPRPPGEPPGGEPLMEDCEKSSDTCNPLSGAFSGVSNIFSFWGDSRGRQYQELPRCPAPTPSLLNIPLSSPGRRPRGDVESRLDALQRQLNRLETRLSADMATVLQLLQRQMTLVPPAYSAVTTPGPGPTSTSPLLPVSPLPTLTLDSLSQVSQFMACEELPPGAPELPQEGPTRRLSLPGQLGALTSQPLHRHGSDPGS

KEFLHPSKVDLPR [SOR-C13] showed an AUC(0-t) ([1]; 2.75 mg/kg, Cohort 4: 2.75 mg/kg, N = 6, Cycle 1 Day 10, read-out: AUCtau, Mean (SD)) of 274 ng·h/mL, an AUC(0-t) ([1]; 2.75 mg/kg, Cohort 4: 2.75 mg/kg, N = 6, Cycle 1 Day 10, read-out: AUCtau, Median) of 192 ng·h/mL and a Cmax ([1]; 2.75 mg/kg, Cohort 4: 2.75 mg/kg, N = 6, Cycle 1 Day 10, read-out: Peak plasma concentration, Mean (SD)) of 290 ng/mL. It also gave a Cmax ([1]; 2.75 mg/kg, Cohort 4: 2.75 mg/kg, N = 6, Cycle 1 Day 10, read-out: Peak plasma concentration, Median) of 232 ng/mL, a Tmax ([1]; 2.75 mg/kg, Cohort 4: 2.75 mg/kg, N = 6, Cycle 1 Day 10, read-out: Time to peak plasma concentration, Mean (SD)) of 36.6 min and a Tmax ([1]; 2.75 mg/kg, Cohort 4: 2.75 mg/kg, N = 6, Cycle 1 Day 10, read-out: Time to peak plasma concentration, Median) of 30 min. It also gave an AUC(0-t) ([1]; 4.13 mg/kg, Cohort 5: 4.13 mg/kg, N = 3, Cycle 1 Day 1, read-out: AUCtau, Mean (SD)) of 78.4 ng·h/mL, an AUC(0-t) ([1]; 4.13 mg/kg, Cohort 5: 4.13 mg/kg, N = 3, Cycle 1 Day 1, read-out: AUCtau, Median) of 23.4 ng·h/mL and a Cmax ([1]; 4.13 mg/kg, Cohort 5: 4.13 mg/kg, N = 3, Cycle 1 Day 1, read-out: Peak plasma concentration, Mean (SD)) of 139 ng/mL. The Cmax ([1]; 4.13 mg/kg, Cohort 5: 4.13 mg/kg, N = 3, Cycle 1 Day 1, read-out: Peak plasma concentration, Median) was 42 ng/mL, the Tmax ([1]; 4.13 mg/kg, Cohort 5: 4.13 mg/kg, N = 3, Cycle 1 Day 1, read-out: Time to peak plasma concentration, Mean (SD)) was 25 min and the Tmax ([1]; 4.13 mg/kg, Cohort 5: 4.13 mg/kg, N = 3, Cycle 1 Day 1, read-out: Time to peak plasma concentration, Median) was 15 min. It also gave an AUC(0-t) ([1]; 4.13 mg/kg, Cohort 5: 4.13 mg/kg, N = 3, Cycle 1 Day 3, read-out: AUCtau, Mean (SD)) of 373 ng·h/mL, an AUC(0-t) ([1]; 4.13 mg/kg, Cohort 5: 4.13 mg/kg, N = 3, Cycle 1 Day 3, read-out: AUCtau, Median) of 403 ng·h/mL and a Cmax ([1]; 4.13 mg/kg, Cohort 5: 4.13 mg/kg, N = 3, Cycle 1 Day 3, read-out: Peak plasma concentration, Mean (SD)) of 369 ng/mL. It also gave a Cmax ([1]; 4.13 mg/kg, Cohort 5: 4.13 mg/kg, N = 3, Cycle 1 Day 3, read-out: Peak plasma concentration, Median) of 403 ng/mL, a Tmax ([1]; 4.13 mg/kg, Cohort 5: 4.13 mg/kg, N = 3, Cycle 1 Day 3, read-out: Time to peak plasma concentration, Mean (SD)) of 35 min and a Tmax ([1]; 4.13 mg/kg, Cohort 5: 4.13 mg/kg, N = 3, Cycle 1 Day 3, read-out: Time to peak plasma concentration, Median) of 45 min. The AUC(0-t) ([1]; 4.13 mg/kg, Cohort 5: 4.13 mg/kg, N = 3, Cycle 1 Day 8, read-out: AUCtau, Mean (SD)) was 197 ng·h/mL, the AUC(0-t) ([1]; 4.13 mg/kg, Cohort 5: 4.13 mg/kg, N = 3, Cycle 1 Day 8, read-out: AUCtau, Median) was 245 ng·h/mL and the Cmax ([1]; 4.13 mg/kg, Cohort 5: 4.13 mg/kg, N = 3, Cycle 1 Day 8, read-out: Peak plasma concentration, Mean (SD)) was 212 ng/mL. It also gave a Cmax ([1]; 4.13 mg/kg, Cohort 5: 4.13 mg/kg, N = 3, Cycle 1 Day 8, read-out: Peak plasma concentration, Median) of 264 ng/mL, a Tmax ([1]; 4.13 mg/kg, Cohort 5: 4.13 mg/kg, N = 3, Cycle 1 Day 8, read-out: Time to peak plasma concentration, Mean (SD)) of 18.2 min and a Tmax ([1]; 4.13 mg/kg, Cohort 5: 4.13 mg/kg, N = 3, Cycle 1 Day 8, read-out: Time to peak plasma concentration, Median) of 4.8 min. The AUC(0-t) ([1]; 4.13 mg/kg, Cohort 5: 4.13 mg/kg, N = 3, Cycle 1 Day 10, read-out: AUCtau, Mean (SD)) was 273 ng·h/mL, the AUC(0-t) ([1]; 4.13 mg/kg, Cohort 5: 4.13 mg/kg, N = 3, Cycle 1 Day 10, read-out: AUCtau, Median) was 324 ng·h/mL and the Cmax ([1]; 4.13 mg/kg, Cohort 5: 4.13 mg/kg, N = 3, Cycle 1 Day 10, read-out: Peak plasma concentration, Mean (SD)) was 280 ng/mL. For the same sequence, the Cmax ([1]; 4.13 mg/kg, Cohort 5: 4.13 mg/kg, N = 3, Cycle 1 Day 10, read-out: Peak plasma concentration, Median) was 295 ng/mL, the Tmax ([1]; 4.13 mg/kg, Cohort 5: 4.13 mg/kg, N = 3, Cycle 1 Day 10, read-out: Time to peak plasma concentration, Mean (SD)) was 21.6 min and the AUC(0-t) ([1]; 6.2 mg/kg, Cohort 6: 6.2 mg/kg, N = 6, Cycle 1 Day 1, read-out: AUCtau, Mean (SD)) was 1130 ng·h/mL. For the same sequence, the AUC(0-t) ([1]; 6.2 mg/kg, Cohort 6: 6.2 mg/kg, N = 6, Cycle 1 Day 1, read-out: AUCtau, Median) was 570 ng·h/mL, the Cmax ([1]; 6.2 mg/kg, Cohort 6: 6.2 mg/kg, N = 6, Cycle 1 Day 1, read-out: Peak plasma concentration, Mean (SD)) was 1150 ng/mL and the Cmax ([1]; 6.2 mg/kg, Cohort 6: 6.2 mg/kg, N = 6, Cycle 1 Day 1, read-out: Peak plasma concentration, Median) was 682 ng/mL. It also gave a Tmax ([1]; 6.2 mg/kg, Cohort 6: 6.2 mg/kg, N = 6, Cycle 1 Day 1, read-out: Time to peak plasma concentration, Mean (SD)) of 56.6 min, an AUC(0-t) ([1]; 6.2 mg/kg, Cohort 6: 6.2 mg/kg, N = 6, Cycle 1 Day 3, read-out: AUCtau, Mean (SD)) of 1100 ng·h/mL and an AUC(0-t) ([1]; 6.2 mg/kg, Cohort 6: 6.2 mg/kg, N = 6, Cycle 1 Day 3, read-out: AUCtau, Median) of 904 ng·h/mL. The Cmax ([1]; 6.2 mg/kg, Cohort 6: 6.2 mg/kg, N = 6, Cycle 1 Day 3, read-out: Peak plasma concentration, Mean (SD)) was 1020 ng/mL, the Cmax ([1]; 6.2 mg/kg, Cohort 6: 6.2 mg/kg, N = 6, Cycle 1 Day 3, read-out: Peak plasma concentration, Median) was 843 ng/mL and the Tmax ([1]; 6.2 mg/kg, Cohort 6: 6.2 mg/kg, N = 6, Cycle 1 Day 3, read-out: Time to peak plasma concentration, Mean (SD)) was 27.7 min. It also gave a Tmax ([1]; 6.2 mg/kg, Cohort 6: 6.2 mg/kg, N = 6, Cycle 1 Day 3, read-out: Time to peak plasma concentration, Median) of 9.9 min, an AUC(0-t) ([1]; 6.2 mg/kg, Cohort 6: 6.2 mg/kg, N = 6, Cycle 1 Day 8, read-out: AUCtau, Mean (SD)) of 1340 ng·h/mL and an AUC(0-t) ([1]; 6.2 mg/kg, Cohort 6: 6.2 mg/kg, N = 6, Cycle 1 Day 8, read-out: AUCtau, Median) of 843 ng·h/mL. For the same sequence, the Cmax ([1]; 6.2 mg/kg, Cohort 6: 6.2 mg/kg, N = 6, Cycle 1 Day 8, read-out: Peak plasma concentration, Mean (SD)) was 1440 ng/mL, the Cmax ([1]; 6.2 mg/kg, Cohort 6: 6.2 mg/kg, N = 6, Cycle 1 Day 8, read-out: Peak plasma concentration, Median) was 826 ng/mL and the Tmax ([1]; 6.2 mg/kg, Cohort 6: 6.2 mg/kg, N = 6, Cycle 1 Day 8, read-out: Time to peak plasma concentration, Mean (SD)) was 45.8 min. For the same sequence, the AUC(0-t) ([1]; 6.2 mg/kg, Cohort 6: 6.2 mg/kg, N = 6, Cycle 1 Day 10, read-out: AUCtau, Mean (SD)) was 1430 ng·h/mL, the AUC(0-t) ([1]; 6.2 mg/kg, Cohort 6: 6.2 mg/kg, N = 6, Cycle 1 Day 10, read-out: AUCtau, Median) was 830 ng·h/mL and the Cmax ([1]; 6.2 mg/kg, Cohort 6: 6.2 mg/kg, N = 6, Cycle 1 Day 10, read-out: Peak plasma concentration, Mean (SD)) was 1380 ng/mL. For the same sequence, the Cmax ([1]; 6.2 mg/kg, Cohort 6: 6.2 mg/kg, N = 6, Cycle 1 Day 10, read-out: Peak plasma concentration, Median) was 794 ng/mL, the Tmax ([1]; 6.2 mg/kg, Cohort 6: 6.2 mg/kg, N = 6, Cycle 1 Day 10, read-out: Time to peak plasma concentration, Mean (SD)) was 36.1 min and the Tmax ([1]; 6.2 mg/kg, Cohort 6: 6.2 mg/kg, N = 6, Cycle 1 Day 10, read-out: Time to peak plasma concentration, Median) was 30 min. The “modulation of channel activity” value (hERG) was “no modulation of channel activity”, the peptide degradation half-life [2] was “about 1 h” and the “modulation of channel activity” value [3] was “no modulation of channel activity”.
